In ChEMBL document CHEMBL4699577, “Highly Oxygenated Caryophyllene-Type Sesquiterpenes from a Plant-Associated Fungus, Pestalotiopsis hainanensis, and Their Biosynthetic Gene Cluster” (J Nat Prod, 2020):

Tests used:
[1] = system: HL-60; test: Growth inhibition of human HL-60 cells after 96 hrs by MTT assay; type: functional, cell-based; settings: HL-60, 96 h
[2] = system: THP-1; test: Growth inhibition of human THP-1 cells after 96 hrs by MTT assay; type: functional, cell-based; settings: THP-1, 96 h

IC50 [1]: 6.2 µM
IC50 [2]: 2 µM
SMILES: CO[C@@H]1[C@H]2[C@H](O)O[C@@]3([C@@H](OC(C)=O)C/C(C)=C/[C@H]1OC)[C@@H]2CC3(C)C
